Source: patent US9518107B2, “Pharmaceutical compositions containing polypeptides derived from α-1 antitrypsin and methods of use thereof” (YISSUM RESEARCH DEVELOPMENT COMPANY OF THE HEBREW …, priority 2010, dated 2016)

Key:
Female C57BL/6 mice = test: Experimental autoimmune encephalitis (EAE), MOG 35-55 induced, neurological score; format: in vivo; conditions: thrice a week
Method: (§1) Female C57BL/6 mice were injected subcutaneously into 4 sites on the back, adjacent to each of the forelimbs and hindlimbs (total amount 200 μl) with a myelin oligodendritic glycoprotein (MOG) 35-55 fragment emulsified with complete Freund's adjuvant. Thereafter, each animal was i.p. injected with pertusis toxin (PTX; 200 ng/mouse) in PBS and an additional
PTX injection was repeated 2 days later, which is a standard protocol for initiating experimental autoimmune encephalomyelitis (EAE) in mice. UBE polypeptide (SEQ ID NO:2) was intraperitoneally (i.p.) injected (0.3 μg/kg, thrice a week) five days after MOG immunization (day of onset of symptoms). The animals were evaluated for neurological score from 0 (no effect) to 6 (severe neurological symptoms including paralysis). Results are the mean±SE of neurological score (sum of all scores divided by the number of animals in each experimental group) at each of the indicated time intervals after MOG injection.
as §1, with “additional PTX injection was repeated 2 days later. Four days after MOG immunization, each mouse received i.p. injections (1 μg/kg, thrice a week) of each of the following polypeptides:” for “additional”
The animals were evaluated for neurological score from 0 (no effect) to 6 (severe neurological symptoms including paralysis). Results are the mean±SE of neurological score (sum of all scores divided by the number of animals in each experimental group) at each of the indicated time intervals after immunization.

arthritic mice = test: Collagen type II induced arthritis, joint swelling; format: in vivo; conditions: 1 μg/kg thrice a week, from five days after second immunization; FIG. 16
Method: Chick collagen type II (2.0 mg) was incubated overnight in 0.01 M acetic acid (0.9 ml) at 4° C. The resulting solution was emulsified with equal volume (1.0 ml) of […] Freund's Adjuvant containing 5.0 mg heat-killed Mycobacterium tuberculosis. Thereafter, the animal was injected intradermally in the tail base with 100 μl of the emulsion and an additional immunization was repeated 21 days later. Five days later, UBE or UBE1 polypeptide were administered (1 μg/kg thrice a week). The animals were evaluated for the difference in joint thickness (mm) between the indicated time intervals and prior to immunization.

T-lymphocytes = test: Lymphocyte proliferation in vitro (viable cell count, trypan blue); format: cell-based, female C57B1/6 mice; conditions: 96 hours incubation; FIG. 17
Method: T-lymphocytes were harvested from lymph nodes of female C57B1/6 mice by standard methodology and seeded (1.3×10^6 cells/ml) in 96 well plate […]. Thereafter, UBE was added to the culture at the indicated concentrations and incubated for 96 hours (6% CO2, 37° C.). The medium containing the polypeptide was replaced after 48 hours of incubation. Viable cells (trypan blue staining) were counted a light microscope.

HaCaT keratinocytes = test: HaCaT keratinocyte proliferation (MTT assay); format: cell-based; conditions: FIG. 18
Method: Cells (1.6×10^4/ml) were seeded (100 μl) in culture medium in 96 well plate. Twenty four hours later UBE was added at the indicated concentrations. Cell viability was determined by the MTT assay.

Female C57B1/6 mice = test: LPS induced sepsis in mice, UBE i.v.; format: in vivo; conditions: i.v. within 1 hour after LPS 1.2 mg/mouse; 48 hours after LPS; 0.1 and 1.0 μg/kg; FIG. 20B
Method: Female C57B1/6 mice 7-8 weeks of age were injected i.p with LPS 1.2 mg/mouse. Thereafter (within 1 hour) UBE peptide as depicted by SEQ ID NO: 2 was injected i.v. (100 μl) at different doses; control group received PBS. Survival of mice was monitored. n=10 for control group, n=9 for each UBE-treated group.

mice = test: LPS induced sepsis in mice, second protocol, UBE i.p.; format: in vivo; conditions: for survival of the mice treated: repeated after 24 hours, 50 hours post LPS injection, FIG. 20A
Method: In a second protocol, mice were injected i.p. with LPS (dissolved in saline solution) at a dose of 1.2 mg/mouse, followed by i.p. injection of UBE at a dose of 1.0 or 10.0 μg/kg after 30 minutes. UBE treatment was repeated after 24 hours (n=4 for UBE-treated groups and n=5 for controls).

Female Balb/C mice = test: Ovalbumin-induced asthma in mice, eosinophils in bronchoalveolar lavage; format: in vivo; conditions: UBE i.n. 50 ng/mouse on days 24 and 27, one hour before OVA; day 29; FIG. 21
Method: 20 ul of 5% Ovalbumin (OVA) was added to 8.75 ml of sterile saline, which was then added stepwise to a solution of 1.25 ml of 40 mg/ml ImjectAlum (Pierce), and subjected to rocking at room temperature for 30-60 minutes, to facilitate optimal alum absorption to the Ovalbumin (Alum/Ova). Female Balb/C mice were then injected with 200 ul of Alum/Ova i.p, according to the following protocol:
On Days 0 and 14, mice were injected i.p with OVA/Alum.
On day 24 mice were injected intranasally (i.n.) with. UBE/saline (50 ng/50 μl/mouse, 25 μl to each nostril) and then after one hour, mice were injected i.n with OVA (50 μg/50 μl/mouse, 25 μl to each nostril).
On Day 27, mice were injected i.n. UBE/saline (50 ng/50 μl/mouse, 25 μl to each nostril) and then 1 hour subsequently were again injected i.n. with OVA (50 μg/50 μl/mouse). Mice were then sacrificed on day 29, and bronchoalveolar fluid was obtained by lung lavage (1 ml of 10% FCS-heat inactivated in PBS), and the percent of eosinophils seen in lavage fluid versus white cell count was ascertained by microscopic evaluation of smears.

With “SMPPIVRFDHPFLFIIFEEHTQSPLFVGKVVDPTHK (listed as Mus musculus) [UBE, 36-mer peptide corresponding to residues 378-413 of Mus musculus alpha-1-antitrypsin (serpin a1c)]” the “neurological symptoms (neurological score 0 to 6)” value (Female C57BL/6 mice; i.p. 0.3 μg/kg, from five days after MOG immunization, FIG. 2) was “reduced the neurological symptoms”, the “neurological symptoms (neurological score 0 to 6)” value (Female C57BL/6 mice; i.p. 1 μg/kg, from four days after MOG immunization, FIG. 3) was “reduced the neurological symptoms” and the “joint swelling (difference in joint thickness)” value (arthritic mice) was “reduction in joint swelling”. For the same sequence, the “concentration of maximal effect on T cell proliferation” value (T-lymphocytes) was 1 ng/mL, the “effect on cultured keratinocyte proliferation (cell viability, MTT)” value (HaCaT keratinocytes) was “anti-proliferative effect” and the “reduction of LPS-induced mortality” value (Female C57B1/6 mice) was 33%. The “survival of the mice treated” value (mice; UBE 1.0 μg/kg i.p. 30 minutes after LPS) was “approximately 50%”, the “survival of the mice treated” value (mice; UBE 10 μg/kg i.p. 30 minutes after LPS) was “approximately 50%” and the “survival time as compared to controls” value (mice; both UBE dosages (1.0 and 10 μg/kg i.p.)) was “significantly prolonged survival”. For the same sequence, the “eosinophil concentration in lavage fluid (percent of eosinophils versus white cell count)” value (Female Balb/C mice) was “dramatic reduction”.
